Reference: publication PMC12736120, “First-in-Human Phase I Clinical Trial of SLC-391, a Novel and Selective AXL Inhibitor, in Patients with Advanced Solid Tumours” (Pharmaceuticals, 2025)

Experiment: Phase I safety and tolerability (DLTs, adverse events, laboratory, ECG)
Assay type: in vivo
Method: This study employed a standard 3 + 3 dose escalation design with a starting dose of 25 mg QD. […] Dose escalation decisions took into account all available data from evaluable subjects as well as PK and the safety profile of prior dose cohorts. […] There was a minimum 5-day stagger between dosing of the first and second subjects in each dose cohort. Dose escalation decisions were made by a data review committee (DRC) composed of, at minimum, the medical monitor, at least one principal investigator, and a sponsor representative, per the study DRC Plan. Dose escalation could continue until 2 or more subjects in the same dose cohort experienced a dose-limiting toxicity (DLT). DLTs were defined as Grade 3 or 4 adverse drug reactions (ADRs), with grades as defined in the National Cancer Institute Common Toxicity Criteria for Adverse Events (NCI-CTCAE) version 5.0. […] The MTD was defined as the highest dose at which no more than 1 of 6 subjects experienced a DLT during cycle 1 of the study drug. The MTD would have been exceeded if 2 or more subjects in a dose cohort of up to 6 subjects experienced a DLT. Subjects could continue treatment until disease progression, unacceptable toxicity, death, withdrawal of consent, or loss to follow-up.
Before enrolment in the study, all patients received a detailed medical history and physical examination. Clinical laboratory evaluations included clinical chemistry, complete blood count, urinalysis, coagulation factors, and a lipid panel. Other safety assessments included vital signs, physical examination, electrocardiogram, and echocardiogram with multigated acquisition (ECHO/MUGA). Safety assessments were performed on days 1, 8, 15, and 21 of cycle 1, and on day 1 of cycles 2 to 6.

[1] = Grade 1, Overall Study (N = 35)
[2] = Grade 2, Overall Study (N = 35)

Nc1ncc(-c2cnn(C3CCNCC3)c2)cc1-c1nnc(CC2CC2)o1 [SLC-391, 3-(5-[cyclopropylmethyl]-1,3,4-oxadiazol-2-yl)-5-(1-[piperidin-4-yl]-1H-pyrazol-4-yl)-pyridin-2-amine]
TEAE: Abdominal distension [1]: 4 (11.4) n (%)
TEAE: Abdominal pain [1]: 4 (11.4) n (%)
TEAE: Back pain [1]: 1 (2.9) n (%)
TEAE: Blood and lymphatic system disorders [1]: 1 (2.9) n (%)
TEAE: Chills [1]: 6 (17.1) n (%)
TEAE: Constipation [1]: 10 (28.6) n (%)
TEAE: Cough [1]: 6 (17.1) n (%)
TEAE: Decreased appetite [1]: 7 (20.0) n (%)
TEAE: Diarrhoea [1]: 14 (40.0) n (%)
TEAE: Dizziness [1]: 4 (11.4) n (%)
TEAE: Dysgeusia [1]: 1 (2.9) n (%)
TEAE: Dyspnoea [1]: 2 (5.7) n (%)
TEAE: Fatigue [1]: 10 (28.6) n (%)
TEAE: Gastrointestinal disorders [1]: 15 (42.9) n (%)
TEAE: General disorders and administration site conditions [1]: 12 (34.3) n (%)
TEAE: Haematuria [1]: 4 (11.4) n (%)
TEAE: Headache [1]: 5 (14.3) n (%)
TEAE: Infections and infestations [1]: 1 (2.9) n (%)
TEAE: Investigations [1]: 7 (20.0) n (%)
TEAE: Metabolism and nutrition disorders [1]: 5 (14.3) n (%)
TEAE: Musculoskeletal and connective tissue disorders [1]: 7 (20.0) n (%)
TEAE: Nausea [1]: 15 (42.9) n (%)
TEAE: Nervous system disorders [1]: 11 (31.4) n (%)
TEAE: Oedema peripheral [1]: 3 (8.6) n (%)
TEAE: Psychiatric disorders [1]: 3 (8.6) n (%)
TEAE: Pyrexia [1]: 4 (11.4) n (%)
TEAE: Renal and urinary disorders [1]: 3 (8.6) n (%)
TEAE: Respiratory, thoracic, and mediastinal disorders [1]: 5 (14.3) n (%)
TEAE: Skin and subcutaneous tissue disorders [1]: 6 (17.1) n (%)
TEAE: Vomiting [1]: 13 (37.1) n (%)
TEAE: Weight decreased [1]: 6 (17.1) n (%)
Any treatment-emergent adverse event (TEAE) (Grade 2, Overall BID (N = 15)): 7 (46.7) n (%)
TEAE: Abdominal distension (Grade 2, Overall BID (N = 15)): 1 (6.7) n (%)
TEAE: Abdominal pain (Grade 2, Overall BID (N = 15)): 0 n (%)
TEAE: Back pain (Grade 2, Overall BID (N = 15)): 2 (13.3) n (%)
TEAE: Blood and lymphatic system disorders (Grade 2, Overall BID (N = 15)): 0 n (%)
TEAE: Constipation (Grade 2, Overall BID (N = 15)): 2 (13.3) n (%)
TEAE: Cough (Grade 2, Overall BID (N = 15)): 1 (6.7) n (%)
TEAE: Decreased appetite (Grade 2, Overall BID (N = 15)): 4 (26.7) n (%)
TEAE: Diarrhoea (Grade 2, Overall BID (N = 15)): 2 (13.3) n (%)
TEAE: Dysgeusia (Grade 2, Overall BID (N = 15)): 2 (13.3) n (%)
TEAE: Dyspnoea (Grade 2, Overall BID (N = 15)): 5 (33.3) n (%)
TEAE: Fatigue (Grade 2, Overall BID (N = 15)): 5 (33.3) n (%)
TEAE: Gastrointestinal disorders (Grade 2, Overall BID (N = 15)): 5 (33.3) n (%)
TEAE: General disorders and administration site conditions (Grade 2, Overall BID (N = 15)): 6 (40.0) n (%)
TEAE: Haematuria (Grade 2, Overall BID (N = 15)): 1 (6.7) n (%)
TEAE: Infections and infestations (Grade 2, Overall BID (N = 15)): 5 (33.3) n (%)
TEAE: Investigations (Grade 2, Overall BID (N = 15)): 1 (6.7) n (%)
TEAE: Metabolism and nutrition disorders (Grade 2, Overall BID (N = 15)): 5 (33.3) n (%)
TEAE: Musculoskeletal and connective tissue disorders (Grade 2, Overall BID (N = 15)): 3 (20.0) n (%)
TEAE: Nausea (Grade 2, Overall BID (N = 15)): 4 (26.7) n (%)
TEAE: Nervous system disorders (Grade 2, Overall BID (N = 15)): 2 (13.3) n (%)
TEAE: Oedema peripheral (Grade 2, Overall BID (N = 15)): 1 (6.7) n (%)
TEAE: Psychiatric disorders (Grade 2, Overall BID (N = 15)): 2 (13.3) n (%)
TEAE: Pyrexia (Grade 2, Overall BID (N = 15)): 0 n (%)
TEAE: Renal and urinary disorders (Grade 2, Overall BID (N = 15)): 1 (6.7) n (%)
TEAE: Respiratory, thoracic, and mediastinal disorders (Grade 2, Overall BID (N = 15)): 6 (40.0) n (%)
TEAE: Skin and subcutaneous tissue disorders (Grade 2, Overall BID (N = 15)): 0 n (%)
TEAE: Urinary tract infection (Grade 2, Overall BID (N = 15)): 3 (20.0) n (%)
TEAE: Vascular disorders (Grade 2, Overall BID (N = 15)): 1 (6.7) n (%)
TEAE: Vomiting (Grade 2, Overall BID (N = 15)): 1 (6.7) n (%)
Any treatment-emergent adverse event (TEAE) (Grade 2, Overall QD (N = 20)): 12 (60.0) n (%)
TEAE: Abdominal distension (Grade 2, Overall QD (N = 20)): 1 (5.0) n (%)
TEAE: Abdominal pain (Grade 2, Overall QD (N = 20)): 1 (5.0) n (%)
TEAE: Back pain (Grade 2, Overall QD (N = 20)): 1 (5.0) n (%)
TEAE: Blood and lymphatic system disorders (Grade 2, Overall QD (N = 20)): 1 (5.0) n (%)
TEAE: Constipation (Grade 2, Overall QD (N = 20)): 2 (10.0) n (%)
TEAE: Cough (Grade 2, Overall QD (N = 20)): 0 n (%)
TEAE: Decreased appetite (Grade 2, Overall QD (N = 20)): 1 (5.0) n (%)
TEAE: Diarrhoea (Grade 2, Overall QD (N = 20)): 3 (15.0) n (%)
TEAE: Dysgeusia (Grade 2, Overall QD (N = 20)): 1 (5.0) n (%)
TEAE: Dyspnoea (Grade 2, Overall QD (N = 20)): 4 (20.0) n (%)
TEAE: Fatigue (Grade 2, Overall QD (N = 20)): 6 (30.0) n (%)
TEAE: Gastrointestinal disorders (Grade 2, Overall QD (N = 20)): 6 (30.0) n (%)
TEAE: General disorders and administration site conditions (Grade 2, Overall QD (N = 20)): 8 (40.0) n (%)
TEAE: Haematuria (Grade 2, Overall QD (N = 20)): 0 n (%)
TEAE: Infections and infestations (Grade 2, Overall QD (N = 20)): 3 (15.0) n (%)
TEAE: Investigations (Grade 2, Overall QD (N = 20)): 0 n (%)
TEAE: Metabolism and nutrition disorders (Grade 2, Overall QD (N = 20)): 2 (10.0) n (%)
TEAE: Musculoskeletal and connective tissue disorders (Grade 2, Overall QD (N = 20)): 2 (10.0) n (%)
TEAE: Nausea (Grade 2, Overall QD (N = 20)): 4 (20.0) n (%)
TEAE: Nervous system disorders (Grade 2, Overall QD (N = 20)): 2 (10.0) n (%)
TEAE: Oedema peripheral (Grade 2, Overall QD (N = 20)): 0 n (%)
TEAE: Psychiatric disorders (Grade 2, Overall QD (N = 20)): 0 n (%)
TEAE: Pyrexia (Grade 2, Overall QD (N = 20)): 1 (5.0) n (%)
TEAE: Renal and urinary disorders (Grade 2, Overall QD (N = 20)): 1 (5.0) n (%)
TEAE: Respiratory, thoracic, and mediastinal disorders (Grade 2, Overall QD (N = 20)): 6 (30.0) n (%)
TEAE: Skin and subcutaneous tissue disorders (Grade 2, Overall QD (N = 20)): 3 (15.0) n (%)
TEAE: Urinary tract infection (Grade 2, Overall QD (N = 20)): 1 (5.0) n (%)
TEAE: Vascular disorders (Grade 2, Overall QD (N = 20)): 2 (10.0) n (%)
TEAE: Vomiting (Grade 2, Overall QD (N = 20)): 2 (10.0) n (%)
Any treatment-emergent adverse event (TEAE) [2]: 19 (54.3) n (%)
TEAE: Abdominal distension [2]: 2 (5.7) n (%)
TEAE: Abdominal pain [2]: 1 (2.9) n (%)
TEAE: Back pain [2]: 3 (8.6) n (%)
TEAE: Blood and lymphatic system disorders [2]: 1 (2.9) n (%)
TEAE: Constipation [2]: 4 (11.4) n (%)
TEAE: Cough [2]: 1 (2.9) n (%)
TEAE: Decreased appetite [2]: 5 (14.3) n (%)
TEAE: Diarrhoea [2]: 5 (14.3) n (%)
TEAE: Dysgeusia [2]: 3 (8.6) n (%)
TEAE: Dyspnoea [2]: 9 (25.7) n (%)
TEAE: Fatigue [2]: 11 (31.4) n (%)
TEAE: Gastrointestinal disorders [2]: 11 (31.4) n (%)
TEAE: General disorders and administration site conditions [2]: 14 (40.0) n (%)
TEAE: Haematuria [2]: 1 (2.9) n (%)
TEAE: Infections and infestations [2]: 8 (22.9) n (%)
TEAE: Investigations [2]: 1 (2.9) n (%)
TEAE: Metabolism and nutrition disorders [2]: 7 (20.0) n (%)
TEAE: Musculoskeletal and connective tissue disorders [2]: 5 (14.3) n (%)
TEAE: Nausea [2]: 8 (22.9) n (%)
TEAE: Nervous system disorders [2]: 4 (11.4) n (%)
TEAE: Oedema peripheral [2]: 1 (2.9) n (%)
TEAE: Psychiatric disorders [2]: 2 (5.7) n (%)
TEAE: Pyrexia [2]: 1 (2.9) n (%)
TEAE: Renal and urinary disorders [2]: 2 (5.7) n (%)
TEAE: Respiratory, thoracic, and mediastinal disorders [2]: 12 (34.3) n (%)
TEAE: Skin and subcutaneous tissue disorders [2]: 3 (8.6) n (%)
TEAE: Urinary tract infection [2]: 4 (11.4) n (%)
TEAE: Vascular disorders [2]: 3 (8.6) n (%)
TEAE: Vomiting [2]: 3 (8.6) n (%)
Any treatment-emergent adverse event (TEAE) (Grade 3, Overall BID (N = 15)): 6 (40.0) n (%)
TEAE: Blood and lymphatic system disorders (Grade 3, Overall BID (N = 15)): 1 (6.7) n (%)
TEAE: Diarrhoea (Grade 3, Overall BID (N = 15)): 1 (6.7) n (%)
TEAE: Dyspnoea (Grade 3, Overall BID (N = 15)): 0 n (%)
TEAE: Fatigue (Grade 3, Overall BID (N = 15)): 1 (6.7) n (%)
TEAE: Gastrointestinal disorders (Grade 3, Overall BID (N = 15)): 1 (6.7) n (%)
TEAE: General disorders and administration site conditions (Grade 3, Overall BID (N = 15)): 1 (6.7) n (%)
TEAE: Infections and infestations (Grade 3, Overall BID (N = 15)): 1 (6.7) n (%)
